The term inhibition denotes the percentage by which the read-out fell short of the control.

Bounds are passed on as bounds.

Series [1] is described as follows: Dissolution in solvent (MDG) when preparing compositions. It is filed as physicochemical. To be noted: preparation of compositions. Here is the method: (§1) Predetermined amounts of p-toluquinone and HEDP were weighed and solvent (MDG) was added to prepare a composition. Since citric acid and EDTA were not dissolved in MDG, they were directly added in culture solutions; at the same time, p-toluquinone was directly added to the culture solutions.

Series [2] deals with biofilm-forming microbe isolated from cooling water taken from a water cooling tower. In words: Biofilm inhibition test, quinone-based compound and chelating agent (OD570). To be noted: Experiment No. 19: Toluquinone 0 ppm, Citric acid 10 ppm; 0 ppm/0 ppm gave 0.329. It counts as cell-based. Here is the method: A biofilm-forming microbe (microbe showing a OD570 value of 0.3 or more in the test for determining the amount of biofilm (the following section 2-4)) isolated from cooling water taken from a water cooling tower was cultured in R2A culture medium at 30° C. for 16 hours while shaking. The turbidity (OD600) of the resultant culture solution was measured. The culture solution was diluted with R2A culture medium to prepare a suspension of 10^3 cfu/mL.
as §1
The suspension of a test microbe prepared in the above section 2-1) was added in individual wells of a 96 well microplate in an amount of 150 μL, and then, the test solutions prepared in the above section 2-2) was each added and culture was initiated.
After the 96 well microplate was subjected to stationary culture performed at 30° C. for 48 hours, the culture solution was removed and the resultant microplate was washed with water. Subsequently, each well was stained with 0.1% crystal violet and 200 μL of ethanol was added. The absorbance (OD570) was measured to obtain the amount of biofilm (BF) formed.

In series [3] the test system is Pseudomonas PAO1 strain (ATCC 15692). In words: Growth of test microbe (turbidity OD600), 96-well microplate culture. It is filed as cell-based. To be noted: Pseudomonas. In outline:
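P. aeruginosa PAO1 diluted in Mueller Hinton Broth, exposed to test compound (ethanol stock evaporated onto DMSO in wells) and grown static at 30° C for 24 h; growth read as OD600. Growth inhibition % = (1 − compound OD600/ethanol-control OD600) × 100.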

A further series relates to B. coli. To be noted: to B. coli; Non Patent Literature 4; cited from earlier work.
For series [4], the system named is Pseudomonas PAO1 strain (ATCC 15692). The series can be described thus: Amount of biofilm formed (crystal violet, OD570), 96-well microplate culture. It is filed as cell-based. To be noted: Pseudomonas, read-out: BF inhibition (%). In outline:
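PAO1 suspension in Mueller Hinton Broth (OD600 1/10^6) grown stationary 24 h at 30 °C with compounds dried from ethanol plus DMSO, final about 7–333 ppm or as listed. Biofilm stained with 0.1% crystal violet, ethanol-eluted, OD570; inhibition % = {1−(compound OD570/ethanol-control OD570)}×100.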

On to `O=C(O)CC(O)(CC(=O)O)C(=O)O` [Citric acid], for which the “dissolution in MDG (diethylene glycol monomethyl ether)” value in series [1] is “not dissolved”. In series [2], this molecule returned an OD570 of 0.261.
`CC(C)(C)c1cc(O)ccc1O` [c, tert-Butylhydroquinone]: the inhibition at 22 ppm was < 0% in series [3] (final concentration 22 ppm) and 34.8% in series [4] (final concentration 22 ppm). For the same molecule, the inhibition at 44 ppm was 5.3% in series [3] (final concentration 44 ppm) and 22.5% in series [4] (final concentration 44 ppm). The values for the inhibition at 89 ppm in series [3] (final concentration 89 ppm) and in series [4] (final concentration 89 ppm) were 9.5% and 32.5%, respectively. The inhibition at 133 ppm in series [3] (final concentration 133 ppm) is < 0%; in series [4] (final concentration 133 ppm) it was 50%. Besides, the inhibition at 155 ppm in series [3] (final concentration 155 ppm) was 11.8%; in series [4] (final concentration 155 ppm), 69.3%. Besides, the results for the inhibition at 177 ppm in series [3] (final concentration 177 ppm) and in series [4] (final concentration 177 ppm) were 13.3% and 64.8%, respectively. Moreover, the “minimum inhibitory concentration (MIC)” value in the series with B. coli was 512 ppm.

Values taken from patent US20190124918A1, “BIOFILM FORMATION INHIBITOR AND BIOFILM FORMATION INHIBITING COMPOSITION” (KAO CORPORATION, priority 2016, published 2019).
